Assay results from ChEMBL document CHEMBL1125373, “Systemic analgesic activity and delta-opioid selectivity in [2,6-dimethyl-Tyr1,D-Pen2,D-Pen5]enkephalin” (J Med Chem, 1992).

Columns and labels:
Format in all cases: functional
Mus musculus [1] = species: Mus musculus; assay: In Vitro evaluation for the potency for inhibiting the contraction of the electrically stimulated isolated mouse vas deferens
Mus musculus [2] = assay: In vivo antinociceptive activity in mice by using PBQ writing test after subcutaneous administration; settings: sc
Mus musculus [3] = assay: In vivo antinociceptive activity in mice by using hot plate test after subcutaneous administration; settings: sc
Mus musculus [4] = assay: In vivo antinociceptive activity in mice by using hot plate test after intracerebroventricular administration

Row | Compound | EC50 (Mus musculus [1]) | ED50 (Mus musculus [2]) | ED50 (Mus musculus [3]) | ED50 (Mus musculus [4])
1 | Cc1cc(O)cc(C)c1C[C@H](N)C(=O)N[C@H]1C(=O)NCC(=O)N[C@@H](Cc2ccccc2)C(=O)N[C@@H](C(=O)O)C(C)(C)SSC1(C)C [listing 1 of 2 here] | 0.15 nM |  |  | 
2 | Cc1cc(O)cc(C)c1C[C@H](N)C(=O)N[C@H]1C(=O)NCC(=O)N[C@@H](Cc2ccccc2)C(=O)N[C@@H](C(=O)O)C(C)(C)SSC1(C)C [listing 2 of 2 here] |  | 2.6 mg/kg | 33 mg/kg | 0.2 µg
3 | CC1(C)SSC(C)(C)[C@@H](NC(=O)[C@@H](N)Cc2ccc(O)cc2)C(=O)NCC(=O)N[C@@H](Cc2ccccc2)C(=O)N[C@H]1C(=O)O | 12.9 nM |  |  | 1.4 µg
4 | CN1CC[C@]23c4c5ccc(O)c4O[C@H]2[C@@H](O)C=C[C@H]3[C@H]1C5 [MORPHINE] |  | 0.2 mg/kg | 3.2 mg/kg | 0.6 µg
